In patent publication US20090093460A1, “Compositions” (AstraZeneca AB, priority 2003, published 2009):

Columns and labels:
[1] = target: T1, brain serotonin 5-HT2 receptor (Homo sapiens, UniProt P28223); assay: In vitro binding, brain serotonin 5-HT2 receptor; conditions: dihydrochloride salt; read-out: binding affinity K1
T1 construct: from tissue; host or cells: brain

dopamine D1 receptor = target: T2, dopamine D1 receptor (Homo sapiens, UniProt P21728); assay: In vitro binding, dopamine D1 receptor; conditions: dihydrochloride salt; read-out: binding affinity K1
T2 construct: from tissue; host or cells: brain

dopamine D2 receptor = dopamine D2 receptor (Homo sapiens, UniProt P14416); assay: In vitro binding, dopamine D2 receptor; conditions: dihydrochloride salt; read-out: binding affinity K1
mice [2] = assay: Standard apomorphine climbing mouse assay; assay type: in vivo; conditions: p.o.
Source text: The methods and procedures used can be found in Warawa et al., J. Med. Chem., 2001, 44 (3), 372-389, and are incorporated herein by reference.

mice [3] = assay: Mouse forced swim test; assay type: in vivo; conditions: 5.0, 10.0 and 20.0 mg/kg sc, 15 minutes prior
Protocol: Methods: Mice were placed in cylinders of water (25.0° C.±1.5° C.) for 6 minutes. The amount of immobility was quantified during the last 4 minutes of each session. The experimental observer was blind to the treatment conditions. […] Imipramine 45.0 mg/kg and citalopram 15.0 mg/kg were measured as the salt and administered ip 60 minutes prior to the behavioural session.

mice [4] = assay: Tail suspension test; assay type: in vivo, mouse; conditions: 30 mg/kg p.o., 60 minutes prior
Protocol: Antidepressant activity of 11-piperazin-1-yldibenzo[b,f][1,4]thiazepine was assessed in mice according to the tail suspension test. As shown in the results below, 11-piperazin-1-yldibenzo[b,f][1,4]thiazepine has antidepressant activity in mice.
In a first experiment, mice (n=10/group) were treated with vehicle, 2.0, 5.0, or 10.0 mg/kg of 11-piperazin-1-yldibenzo[b,f][1,4]thiazepine s.c. 15 minutes prior to the test session. Mice were suspended from their tails for 7 minutes. During the last 5 minutes of the test, the duration of immobility was recorded. In a second experiment, mice (n=10/group) were treated with vehicle, 30 mg/kg 11-piperazin-1-yldibenzo[b,f][1,4]thiazepine, or 30 mg/kg fluoxetine p.o. 60 minutes prior to the test session. Mice were suspended from their tails for 7 minutes. During the last 5 minutes of the test, the duration of immobility was recorded.

T1 sequence (P28223 whole entry): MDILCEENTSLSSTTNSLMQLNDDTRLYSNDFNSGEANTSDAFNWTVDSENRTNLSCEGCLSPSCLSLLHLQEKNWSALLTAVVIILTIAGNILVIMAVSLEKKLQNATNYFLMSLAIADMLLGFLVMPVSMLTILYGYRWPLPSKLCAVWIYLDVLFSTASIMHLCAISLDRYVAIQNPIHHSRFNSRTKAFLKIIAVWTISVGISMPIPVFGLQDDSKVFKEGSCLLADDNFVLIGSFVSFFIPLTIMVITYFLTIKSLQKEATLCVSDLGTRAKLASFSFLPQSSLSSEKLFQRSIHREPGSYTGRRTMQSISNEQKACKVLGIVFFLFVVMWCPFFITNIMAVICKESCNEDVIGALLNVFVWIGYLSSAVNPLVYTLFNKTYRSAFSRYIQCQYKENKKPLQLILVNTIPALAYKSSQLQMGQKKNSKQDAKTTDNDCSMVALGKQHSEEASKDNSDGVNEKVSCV
Chain of dopamine D2 receptor (P14416 whole entry): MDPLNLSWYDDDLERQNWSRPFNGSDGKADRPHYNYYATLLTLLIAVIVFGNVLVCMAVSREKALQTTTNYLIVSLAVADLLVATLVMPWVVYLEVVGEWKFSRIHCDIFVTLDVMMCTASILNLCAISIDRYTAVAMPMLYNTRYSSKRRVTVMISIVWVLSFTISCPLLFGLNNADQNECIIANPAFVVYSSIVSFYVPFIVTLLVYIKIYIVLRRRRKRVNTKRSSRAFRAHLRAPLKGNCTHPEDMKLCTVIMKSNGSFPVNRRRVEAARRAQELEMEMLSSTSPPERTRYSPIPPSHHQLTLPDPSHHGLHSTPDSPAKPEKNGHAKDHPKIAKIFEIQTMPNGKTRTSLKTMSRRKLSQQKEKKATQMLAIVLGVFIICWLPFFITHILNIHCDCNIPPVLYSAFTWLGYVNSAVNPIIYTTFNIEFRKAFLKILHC
T2 sequence (P21728 whole entry): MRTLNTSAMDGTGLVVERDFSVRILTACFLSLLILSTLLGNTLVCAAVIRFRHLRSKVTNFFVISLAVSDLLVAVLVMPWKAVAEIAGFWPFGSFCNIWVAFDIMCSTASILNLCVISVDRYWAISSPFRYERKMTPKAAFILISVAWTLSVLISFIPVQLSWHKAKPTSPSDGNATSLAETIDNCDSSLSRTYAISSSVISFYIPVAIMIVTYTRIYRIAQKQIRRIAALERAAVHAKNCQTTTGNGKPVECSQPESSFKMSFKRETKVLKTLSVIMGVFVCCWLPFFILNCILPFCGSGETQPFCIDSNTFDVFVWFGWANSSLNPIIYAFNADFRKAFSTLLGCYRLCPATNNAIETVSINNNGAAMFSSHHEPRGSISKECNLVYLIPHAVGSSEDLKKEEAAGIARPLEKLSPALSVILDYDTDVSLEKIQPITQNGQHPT

In the case of `Cl.Cl.c1ccc2c(c1)N=C(N1CCNCC1)c1ccccc1S2` [Example 2, 11-piperazin-1-yldibenzo[b,f][1,4]thiazepine, dihydrochloride salt], the Ki [1] is reported as 0.027 µM, the Ki (dopamine D1 receptor) is reported as 1.49 µM and the Ki (dopamine D2 receptor) is reported as 0.234 µM. For the same molecule, the “in vivo antipsychotic activity” value (mice [2]) was “not found to be efficacious”.

With `OCCOCCN1CCN(C2=Nc3ccccc3Sc3ccccc32)CC1` [Quetiapine, reference compound] the “antidepressant effect (immobility)” value (mice [3]) was “no effect”.

With `CNCCC(Oc1ccc(C(F)(F)F)cc1)c1ccccc1` (stereo not shown) [fluoxetine, reference compound] the “reduction of immobility, fraction of that of the vehicle control group” value (mice [4]) was “more than ½” and the “duration of immobility compared to the vehicle control group” value (mice [4]; p<0.01) was “significantly reduced immobility”.
